Experimental findings from patent US12285528B2, “Injectable formulations of anesthetics for any pathological pain” (New Jersey Institute of Technology, priority 2018, dated 2025) are described below.

What all share (format): in vivo, rat
Data set [1] deals with sciatic nerve myelin sheath. In words: Transmission electron microscopy, ultrastructure of sciatic nerve. As to conditions: 0.25%; day 11 after injection; ipsilateral sciatic nerve; no significant difference among groups. The protocol: The rats were anesthetized with isoflurane and perfused with 300 mL of 2.5% gluteraldehyde in 0.1M sodium cacodylate buffer (pH 7.4). After perfusion, sciatic nerves were dissected, postfixed at 4° C. for 3 hours. After dehydrated by gradient ethanol elution, samples were cleared by propylene, then infiltrated with resin and embed in moulds. Transmission electronic microscopy images were acquired by a Hitachi H-7500 transmission electron microscope (Hitachi, Ltd. Japan). To observe the ultrastructure of sciatic nerve after injection, we harvested ipsilateral sciatic nerves on day 11 after injection of PBS. PLGA, 0.25% FR, and 0.25% SRR (n=3 for each group), then processed the tissue to be examined under TEM. […] Specific features of the degeneration of myelin sheath including thinner lamellae, loose lamellae, split myelin lamellae with discontinuities, or vacuole-like inclusions in the cytoplasm of Schwann cells were not observed in any of the nerve tissue.

Data set [2] relates to myelin basic protein (MBP) of sciatic nerve. The data set is described as follows: Immunohistochemistry, MBP expression pattern of sciatic nerve. As to conditions: 0.25%, 11 days post injection. The procedure: Immunohistochemistry analysis were performed as described previously in Y. X. Tao, et al., Nerve injury-induced epigenetic silencing of opioid receptors controlled by DNMT3a in primary afferent neurons, Pain, 158 (2017) 1153-1165. The rats were anesthetized with isoflurane and perfused with 300 mL of 4% paraformaldehyde in 0.1 M phosphate-buffered saline (PBS) (pH 7.4). After perfusion, sciatic nerves were dissected, postfixed at 4° C. for 4 hours and cryoprotected in 30% sucrose overnight. The transverse and longitudinal sections were cut on a cryostat at a thickness of 20 μm. The sections were blocked for 1 hour at 25° C. in 0.01M PBS containing 5% goat serum and 0.3% Triton X-100. Sections were incubated overnight at 4° C. with mouse anti-myelin basic protein (MBP) (1:500; Biolegend, San Diego, CA). The sections were then incubated with a mixture of goat anti-mouse antibody conjugated to Cy2 (1:500; Jackson ImmunoResearch, West Grove, PA) for 2 hours at room temperature. Immunofluorescence-labeled images were generated using a Leica DMI4000 fluorescence microscope with a DFC365FX camera (Leica, Germany).
To examine whether injection of SRR injured the nerve fiber, we investigated the MBP expression pattern of sciatic nerve on 11 days post injection of PBS, PLGA, 0.25% FR, and 0.25% SRR (n=3 for each group).

Data set [3] has as its system postsurgical pain (hindpaw plantar incision). The data set is described as follows: Incisional pain model, overall analgesic effect (mechanical and heat) after peri-sciatic nerve injection. As to conditions: 0.25%, 0.2 mL peri-sciatic. The protocol:
(§1) Male and female Sprague-Dawley rats weighing 200-250 g were obtained from Charles River Laboratories (Wilmington, MA). All rats were housed in an animal facility that was kept in a standard 12-h light/dark cycle, with standard laboratory water and food pellets available ad libitum. Animal experiments were conducted with the approval of the Animal Care and Use Committee at Rutgers-New Jersey Medical School and were consistent with the ethical guidelines of the US National Institutes of Health and the International Association for the Study of Pain. All efforts were made to minimize animal suffering and to reduce the number of animals used. To minimize intra- and inter-individual variability of behavioral outcome measures, animals were trained for 1-2 days before behavioral testing was performed. The experimenters were blinded to treatment condition during behavioral testing.
The incisional surgery was carried out with minor modification as described in T. J. Brennan, et al., Characterization of a rat model of incisional pain, Pain, 64 (1996) 493-501. Rats were anesthetized with 2% isoflurane delivered via a nose cone. The plantar aspect of the left hindpaw was prepared in a sterile manner with a 10% povidone-iodine solution. […]

Data set [4] deals with incision-induced thermal pain hypersensitivity. The data set is described as follows: Incisional pain model, heat allodynia (paw withdrawal latency) after peri-sciatic nerve injection. As to conditions: 0.25%, P<0.05. The protocol:
as §1
(§2) The incisional surgery was carried out with minor modification as described in T. J. Brennan, et al., Characterization of a rat model of incisional pain, Pain, 64 (1996) 493-501. Rats were anesthetized with 2% isoflurane delivered via a nose cone. The plantar aspect of the left hindpaw was prepared in a sterile manner with a 10% povidone-iodine solution. A 1-cm longitudinal incision was made with a number 11 blade, through skin and fascia of the plantar aspect of the foot, starting 0.5 cm from the proximal edge of the heel and extending toward the toes. The plantaris muscle was elevated and incised longitudinally. After hemostasis with gentle pressure, the skin was sutured with 5-0 nylon thread. The wound site was covered with a mixture of polymixin B, neomycin, and bacitracin ointment. After surgery, the animals were allowed to recover in their cages.
(§3) The rats received sciatic nerve block under inhalation anesthesia with isoflurane. Nerve block injections were performed with a 20-gauge needle under isoflurane-oxygen anesthesia as described in J. G. Thalhammer, et al., Neurologic evaluation of the rat during sciatic nerve block with lidocaine, Anesthesiology, 82 (1995) 1013-1025. […]

Data set [5] deals with incision-induced mechanical pain hypersensitivity. The data set is described as follows: Incisional pain model, mechanical allodynia (paw withdrawal threshold, von Frey) after peri-sciatic nerve injection. As to conditions: 0.25%, 0.2 mL peri-sciatic, P<0.05. The protocol:
as §1, §2, §3

Data set [6] has as its system sciatic nerve and surrounding tissues. The data set is described as follows: Histology (H&E) of sciatic nerve and surrounding tissues. As to conditions: 0.25%, 11 days after injection. The source says: The rats were anesthetized with isoflurane and sciatic nerves were harvested and fixed in 4% paraformaldehyde. Following tissue fixation and dehydration, sciatic nerves were embedded in Optimal cutting temperature compound (OCT compound) and 20-μm thin slices were cut on a cryostat, then stained using hematoxylin and eosin stain technique. Nerve structures were observed using a Nikon microscope (Nikon Eclipse 80i, Japan). Rats injected with PBS, PLGA, 0.25% FR (i.e., 0.25% Free ROPI), and 0.25% SRR (i.e., 0.25% PLGA-ROPI) were euthanized 11 days after injection (n=3 for each group), and the sciatic nerve and surrounding tissues were harvested, sectioned for histology, and stained with hematoxylin-eosin (H&E). SRR were not observed on gross dissection.

The test system of the next data set is locomotor function. In words: Locomotor function test (placing, grasping, righting reflexes). As to conditions: 0.25%. The protocol: The rats were divided into different groups according to the different pain model performed (incisional pain model or SNI model), and were injected with 0.2 mL of a sustained-release ropivacaine hydrochloride PBS solution (SRR or alternatively, PLGA-ROPI) containing 0.25%, 0.125%, and 0.06% of PLGA-ROPI or PLGA-RVC·HCl, a PBS solution containing 0.25% free ropivacaine (FR or alternatively, Free-ROPI), and 2 control solutions of a neat PBS, and a neat PLGA, respectively. The % used here refers to the weight (gram %) of PLGA-ROPI or PLGA-RVC·HCl by the volume (mL) of the solution. For example, 0.25% refers to 0.25 g/100 mL. The animals were divided into 10 groups: incision+0.25% SRR, incision+0.125% SRR, incision+0.06% SRR, incision+0.25% FR, incision+PLGA, incision+PBS. SNI+0.25% SRR, SNI+0.125% SRR, SNI+0.06% SRR, SNI+PBS. Each group contained 8 rats. […] For the SNI model, mechanical and cold allodynia with 1 h intervals were used to examine rats 1 d before surgery and 7 d post-surgery, post peri-sciatic nerve injection on 7 d post-surgery, and the behavior test was resumed on d8, d10, d12, d14, d16, d19, and d22. Tests of locomotor function, including placing, grasping and righting reflexes, were performed before and after incision surgery according to the previously described protocol in Y. X. Tao, et al., Impaired neuropathic pain and preserved acute pain in rats overexpressing voltage-gated potassium channel subunit Kv1.2 in primary afferent neurons, Molecular Pain, 10 (2014) 8. (1) Placing reflex: The rat was held with hind limbs slightly lower than the forelimbs and the dorsal surfaces of the hind paws were brought into contact with the edge of a table. Whether the hind paws were placed on the table surface reflexively was recorded; (2) Grasping reflex: The rat was placed on a wire grid and whether the hind paws grasped the wire on contact was recorded; (3) Righting reflex: The rat's back was placed on a flat surface and whether it immediately assumed the normal upright position was recorded. […] In addition, the animal's general behaviors, including spontaneous activity (e.g. walking and running), were observed.

[7] abbreviates: 2 h, normal reflexes in five trials.

On to `CCCN1CCCC[C@H]1C(=O)Nc1c(C)cccc1C` [FR, ropivacaine], for which the “myelin sheath ultrastructure (TEM)” value in data set [1] is “intact and tightly laminated without any discontinuities”. Besides, the “MBP expression pattern / myelin morphology” value in data set [2] is “no abnormality was observed”. Moreover, the “period of analgesic effect” value in data set [3] is listed as ≤ 24 h post injection. Also, the “increase of paw withdrawal latency to heat stimulation vs incision+PBS” value in data set [4] (0.2 mL peri-sciatic, 2 h after surgery) is recorded as 29%; in data set [4] (4 h after surgery) it was 33%; in data set [4] (12 h after surgery), 18%. The “increase of paw withdrawal threshold to mechanical stimulation vs incision+PBS” value was determined as 76% in data set [5] (2 h after surgery), 59% in data set [5] (4 h after surgery) and 71% in data set [5] (12 h after surgery). Further, the “inflammation on microscopic examination (H&E)” value in data set [6] is listed as “no significant inflammation”. The Grasping reflex score in the data set on locomotor function (setting [7]) is given as 4.38(0.63); in the data set on locomotor function (12 h), 5(0); in the data set with locomotor function (1 d), 5(0). In addition, the Placing reflex score in the data set with locomotor function (setting [7]), with locomotor function (12 h) and in the data set with locomotor function (1 d) was 5(0) throughout. Moreover, the Righting reflex score in the data set on locomotor function (setting [7]), with locomotor function (12 h) and in the data set with locomotor function (1 d) was 5(0) each time. Moreover, in the data set with locomotor function (first 2 h after surgery, statistics showed no significant difference), the locomotor function entry is on record as “slightly altered”.
